Columns and labels:
[1] = tested on: Human neutrophils (LTB4 chemotaxis); assay: Modified Boyden Chamber Chemotaxis (LTB4-induced neutrophil chemotaxis); type: cell-based; conditions: 3×10^-8 M LTB4, 40-90 minute incubation at 37° C.
Source text: (§1) Neutrophils were purified from venous blood of normal human donors using standard techniques of dextran sedimentation, centrifugation on Ficoll-paque® (Pharmacia) or Histopaque® sterile solution (Sigma) and hypotonic lysis of erythrocytes (Boyum, A., Isolation of Leukocytes From Human Blood: Further Observations. Scand. J. Lab. Clin. Invest., 21 (Suppl. 97): 31, 1968). The purity of isolated neutrophils was >95%.
Human neutrophils were isolated from citrated peripheral blood using standard techniques of dextran sedimentation, followed by centrifugation on Histopaque® sterile solution (Sigma) or Ficoll-paque® (Pharmacia) and hypotonic lysis of erythrocytes. A final cell suspension of 3.4×10^6 neutrophils/ml of HEPES-buffered Hanks' balanced salt solution (HBSS, pH 7.3) was added to the upper well (0.8 ml) of a modified Boyden chamber (blind well). The lower well (0.2 ml), separated by a polycarbonate membrane (Nucleopore Corp.), contained HBSS or 3×10^-8 M LTB4 in the presence or absence of test compound. Following a 40-90 minute incubation at 37° C. in 5% CO2 -95% air, cells from the lower well were lysed and nuclei counted in a Model S-Plus-IV Coulter Counter. The number of neutrophils migrating into the lower chamber in the absence of chemoattractant was subtracted from the number of cells migrating in the presence of a chemoattractant. Inhibition of chemotaxis by test compounds was expressed as percent inhibition relative to uninhibited control.

[2] = target: T1, LTB4 Receptor (Homo sapiens, UniProt Q15722); assay: LTB4 Receptor Binding Assay; conditions: human neutrophils, 0.6×10^-9 M (3H)LTB4, 0° C., 45 minutes
T1 construct: Neutrophils were purified from venous blood of normal human donors; endogenous in cells; host or cells: human neutrophils from venous blood of normal donors (purity >95%)
Procedure: as §1, with “1968).” for “1968). The purity of isolated neutrophils was >95%.”
Neutrophils (4- 6×10^6) in 1 ml Hanks' balanced salt solution (HBSS) containing 10 mM HEPES buffer, pH 7.4 and 20 mM nordihydroguaiaretic acid were incubated with 0.6×10^-9 M (^3 H) LTB4 in the presence or absence of test compounds. The incubation was carried out at 0° C. for 45 minutes and terminated by adding 5 ml of ice-cold HBSS followed by rapid filtration of the incubation mixture under vacuum through GF/C glass fiber filters. The filters were further washed with 10 ml HBSS and radioactivity was determined. Specific binding was defined as the difference between total binding and nonspecific binding which was not displaced by 10^-7 M unlabeled LTB4. All data refer to specific binding.

T1 sequence (Q15722 whole entry): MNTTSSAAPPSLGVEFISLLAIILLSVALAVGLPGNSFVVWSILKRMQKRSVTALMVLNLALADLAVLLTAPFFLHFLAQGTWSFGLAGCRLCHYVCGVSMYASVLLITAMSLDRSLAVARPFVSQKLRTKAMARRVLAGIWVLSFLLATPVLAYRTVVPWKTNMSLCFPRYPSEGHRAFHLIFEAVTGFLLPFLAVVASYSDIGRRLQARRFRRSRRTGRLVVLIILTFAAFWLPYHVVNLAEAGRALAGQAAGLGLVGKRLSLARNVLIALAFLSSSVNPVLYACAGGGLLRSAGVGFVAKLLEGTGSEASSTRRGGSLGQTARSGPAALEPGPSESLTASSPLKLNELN

SMILES	IC50 [1] [nM]	IC50 [2] [nM]
CCCc1c(OCCCOc2ccc(C(C)=O)c(OC)c2CCC)ccc2c1OC(C(=O)O)CC2 (centres unmarked) [Example 1(b), 7-[3-(4-acetyl-3-methoxy-2-propylphenoxy)propoxy]-3,4-dihydro-8-propyl-2H-1-benzopyran-2-carboxylic acid, reference compound]	1050	–
CCCc1c(OCCCOc2ccc(-c3cscn3)c(OC)c2CC2CC2)ccc2c1OC(CCC(=O)NS(=O)(=O)c1ccccc1)CC2 (centres unmarked) [Example 15, Benzo sulfonimide of 3,4-Dihydro-7-[3-[3-methoxy-2-cycloproplymethyl-4-(4-thiazolyl)phenoxy]propoxy]-8-propyl-2H-1-benzopyran-2-propionic acid]	66	4.3
CCCc1c(OCCCOc2ccc(-c3cscn3)c(OC)c2CC2CC2)ccc2c1OC(C(=O)NS(=O)(=O)c1ccccc1)CC2 (centres unmarked) [Example 9, Benzo sulfonimide of 7-[3-[2-(Cyclopropylmethyl)-3-methoxy-4-(4-thiazolyl)phenoxy]propoxy]-3,4-dihydro-8-propyl-2H-1-benzopyran-2-carboxylic acid]	53	5.5

Reference: patent US5578619A, “Alkoxy-substituted dihydrobenzopyran-2-sulfonimides” (priority 1995, dated 1996)
